The source of these data is patent publication US6413911B1, “Herbicidal sulfonylureas, their preparation and use” (BASF Aktiengesellschaft, priority 1992, dated 2002).

In one series the test system is Sinapis alba. In words: greenhouse test, post-emergence herbicidal activity. Type of series: in vivo. From the text: (§1) The cultivation containers used were plastic flowerpots containing loamy sand with about 3.0% humus as a substrate. The seeds of the test plants were sown separately according to species. For the purpose of post-emergence treatment, the test plants were first raised, depending on growth form, to a growth height of from 4 to 15 cm and only then treated with the active compounds suspended or emulsified in water. To do this, the test plants were either directly sown and raised in the same containers or they were first raised separately as seed plants and transplanted into the test containers a few days before the treatment. The application rate for post-emergence treatment was 0.06 kg/ha of a.s. (active substance). The plants were kept in a species-specific manner at 10-25° C. or 20-35° C. The test period extended over 2 to 4 weeks. During this time the plants were tended and their reaction to the individual treatments was assessed. Assessment was carried out on a scale of from 0 to 100. 100 here means no germination of the plants or complete destruction of at least the above-ground parts and 0 means no damage or normal course of growth. Comparison of the herbicidal activity of the exemplary compound No. 1.03 with the known comparison compound B on post-emergence application of 0.0313 or 0.0156 kg/ha of a.s. respectively in the greenhouse. Comparison of the herbicidal activity of the exemplary compound No. 3.01 with the known comparison compound H on post-emergence application of 0.063 or 0.0313 kg/ha of a.s. respectively in the greenhouse.

The next series has as its system Galium aparine. The description is as above. Type of series: in vivo.
Excerpt: as §1

For a further series, the system named is maize. Put plainly: greenhouse test, post-emergence selectivity in crop plant maize. The series is classed as in vivo, Zea mays. The conditions noted are these: 0.06 kg/ha of a.s. post-emergence.
Excerpt: as §1, with “The plants used in the greenhouse tests were composed” for “Comparison”, “following species: [table]” for “herbicidal activity of the exemplary compound No. 1.03 with the known comparison compound B on post-emergence application of 0.0313 or 0.0156 kg/ha of a.s. respectively in the greenhouse. Comparison of the herbicidal activity of the exemplary compound No. 3.01 with the known comparison compound H on post-emergence application of 0.063 or 0.0313 kg/ha of a.s. respectively in the greenhouse.”

For series [1], the system named is broad-leaved undesired plants. In words: greenhouse test, post-emergence control of broad-leaved undesired plants. The series is classed as in vivo, Abutilon theophrasti; Sinapis alba. The conditions noted are these: 0.06 kg/ha of a.s. post-emergence.
Excerpt: as §1, with “The plants used in the greenhouse tests were composed” for “Comparison”, “following species: [table]” for “herbicidal activity of the exemplary compound No. 1.03 with the known comparison compound B on post-emergence application of 0.0313 or 0.0156 kg/ha of a.s. respectively in the greenhouse. Comparison of the herbicidal activity of the exemplary compound No. 3.01 with the known comparison compound H on post-emergence application of 0.063 or 0.0313 kg/ha of a.s. respectively in the greenhouse.”

For a further series, the system named is Polygonum persicaria. In words: greenhouse test, post-emergence herbicidal activity. Type of series: in vivo. The settings on record: scale 0-100, Table I.
Excerpt: as §1, with “greenhouse.” for “greenhouse. Comparison of the herbicidal activity of the exemplary compound No. 3.01 with the known comparison compound H on post-emergence application of 0.063 or 0.0313 kg/ha of a.s. respectively in the greenhouse.”

In a further series the test system is Veronica spp. The description is as above. The conditions noted are these: scale 0-100, Table I. Type of series: in vivo.
Excerpt: as §1, with “greenhouse.” for “greenhouse. Comparison of the herbicidal activity of the exemplary compound No. 3.01 with the known comparison compound H on post-emergence application of 0.063 or 0.0313 kg/ha of a.s. respectively in the greenhouse.”

Another series deals with Solanum nigrum. Described as above. Type of series: in vivo. The settings on record: scale 0-100, Table I.
Excerpt: as §1, with “greenhouse.” for “greenhouse. Comparison of the herbicidal activity of the exemplary compound No. 3.01 with the known comparison compound H on post-emergence application of 0.063 or 0.0313 kg/ha of a.s. respectively in the greenhouse.”

The test system of another series is Amaranthus retroflexus. Described as above. The series is classed as in vivo. The conditions noted are these: scale 0-100, Table I.
Excerpt: as §1, with “greenhouse.” for “greenhouse. Comparison of the herbicidal activity of the exemplary compound No. 3.01 with the known comparison compound H on post-emergence application of 0.063 or 0.0313 kg/ha of a.s. respectively in the greenhouse.”

A further series has as its system Triticum aestivum. In words: greenhouse test, post-emergence damage to crop plant. The conditions noted are these: scale 0-100, Table II. The series is classed as in vivo.
Excerpt: as §1, with “No.” for “No. 1.03 with the known comparison compound B on post-emergence application of 0.0313 or 0.0156 kg/ha of a.s. respectively in the greenhouse. Comparison of the herbicidal activity of the exemplary compound No.”

Another series has as its system Ipoinea spp. In words: greenhouse test, post-emergence herbicidal activity. The series is classed as in vivo. The conditions noted are these: scale 0-100, Table II.
Excerpt: as §1, with “No.” for “No. 1.03 with the known comparison compound B on post-emergence application of 0.0313 or 0.0156 kg/ha of a.s. respectively in the greenhouse. Comparison of the herbicidal activity of the exemplary compound No.”

The subject of a further series is Alopecurus myosuroides. The series is described as above. Type of series: in vivo. The settings on record: scale 0-100, Table II.
Excerpt: as §1, with “No.” for “No. 1.03 with the known comparison compound B on post-emergence application of 0.0313 or 0.0156 kg/ha of a.s. respectively in the greenhouse. Comparison of the herbicidal activity of the exemplary compound No.”

The mark [2] stands for this setting: 0.0156 kg/ha of a.s., scale 0-100, Table I.
[3] abbreviates: 0.0313 kg/ha of a.s., scale 0-100, Table I.
Where [4] appears, read: 0.0313 kg/ha of a.s., scale 0-100, Table II.
Setting [5] is: 0.063 kg/ha of a.s., scale 0-100, Table II.

Take `COC(=O)c1ccccc1S(=O)(=O)NC(=O)Nc1nc(OC)nc(C(F)(F)Cl)n1` [Example 1.03]: the “Damage [%]” value was 90% in the series on Sinapis alba (setting [2]); 90% in the series with Sinapis alba (setting [3]); 75% in the series on Galium aparine (setting [2]); 95% with Galium aparine (setting [3]); 80% in the series on Polygonum persicaria (0.0156 kg/ha of a.s.); 80% with Polygonum persicaria (0.0313 kg/ha of a.s.). Further, the “Damage [%]” value with Veronica spp. (0.0156 kg/ha of a.s.) worked out at 75%; in the series on Veronica spp. (0.0313 kg/ha of a.s.), 85%; in the series on Solanum nigrum (0.0156 kg/ha of a.s.) it was 90%; in the series on Solanum nigrum (0.0313 kg/ha of a.s.) it was 90%; in the series with Amaranthus retroflexus (0.0156 kg/ha of a.s.) it was 100%; in the series with Amaranthus retroflexus (0.0313 kg/ha of a.s.) it was 100%. For the same compound, the “selectivity in the exemplary crop plant maize” value with maize is recorded as “outstanding selectivity”. Also, in series [1], the “control of broad-leaved undesired plants” value is given as “very well controlled”.
Take `COc1nc(NC(=O)NS(=O)(=O)c2ccccc2C(F)(F)F)nc(C(F)F)n1` [Example 3.01]: the “Damage [%]” value in the series with Sinapis alba (setting [4]) was 98%; with Sinapis alba (setting [5]), 98%; with Galium aparine (setting [4]) it was 95%; in the series on Galium aparine (setting [5]), 95%; with Triticum aestivum (0.0313 kg/ha of a.s.), 0%; with Triticum aestivum (0.063 kg/ha of a.s.), 0%. Further, the “Damage [%]” value was 90% in the series on Ipoinea spp. (0.0313 kg/ha of a.s.), 98% in the series with Ipoinea spp. (0.063 kg/ha of a.s.), 98% in the series on Alopecurus myosuroides (0.0313 kg/ha of a.s.) and 98% with Alopecurus myosuroides (0.063 kg/ha of a.s.).
